These compounds were tested against recombinant human integrin αvβ6 (Homo sapiens (Human), UniProt P06756+P18564) (assay: Solid phase integrin αvβ6 binding assay). Settings: IC50 presented in four ranges; read-out: αvβ6 Inhibition IC50 (nM) - range.
recombinant human integrin αvβ6, sequence (P06756 31-889): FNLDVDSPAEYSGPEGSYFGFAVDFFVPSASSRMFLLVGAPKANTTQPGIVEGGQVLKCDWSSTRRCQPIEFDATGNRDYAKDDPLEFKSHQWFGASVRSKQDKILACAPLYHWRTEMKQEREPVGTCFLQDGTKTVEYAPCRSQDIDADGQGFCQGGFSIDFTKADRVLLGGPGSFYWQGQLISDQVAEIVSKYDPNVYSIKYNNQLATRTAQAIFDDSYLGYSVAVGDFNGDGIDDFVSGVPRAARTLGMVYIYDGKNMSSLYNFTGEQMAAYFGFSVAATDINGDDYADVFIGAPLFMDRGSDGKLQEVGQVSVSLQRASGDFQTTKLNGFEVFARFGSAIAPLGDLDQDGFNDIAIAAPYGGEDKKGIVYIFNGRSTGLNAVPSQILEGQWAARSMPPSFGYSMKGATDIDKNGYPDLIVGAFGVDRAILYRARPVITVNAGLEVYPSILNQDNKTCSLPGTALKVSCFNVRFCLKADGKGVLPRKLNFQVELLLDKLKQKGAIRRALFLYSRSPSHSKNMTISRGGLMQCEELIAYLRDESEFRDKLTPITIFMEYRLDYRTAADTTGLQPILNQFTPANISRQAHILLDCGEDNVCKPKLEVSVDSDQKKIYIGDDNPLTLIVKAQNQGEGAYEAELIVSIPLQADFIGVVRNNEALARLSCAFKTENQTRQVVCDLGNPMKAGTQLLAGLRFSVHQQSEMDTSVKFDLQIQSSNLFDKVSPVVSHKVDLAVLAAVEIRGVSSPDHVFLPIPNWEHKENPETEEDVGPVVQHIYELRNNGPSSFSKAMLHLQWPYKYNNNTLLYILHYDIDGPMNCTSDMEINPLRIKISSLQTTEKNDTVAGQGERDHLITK
recombinant human integrin αvβ6, sequence (P06756 890-992 partner): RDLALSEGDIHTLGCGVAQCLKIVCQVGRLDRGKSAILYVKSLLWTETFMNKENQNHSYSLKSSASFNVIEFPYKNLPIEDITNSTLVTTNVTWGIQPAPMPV
recombinant human integrin αvβ6, sequence (P18564 22-707): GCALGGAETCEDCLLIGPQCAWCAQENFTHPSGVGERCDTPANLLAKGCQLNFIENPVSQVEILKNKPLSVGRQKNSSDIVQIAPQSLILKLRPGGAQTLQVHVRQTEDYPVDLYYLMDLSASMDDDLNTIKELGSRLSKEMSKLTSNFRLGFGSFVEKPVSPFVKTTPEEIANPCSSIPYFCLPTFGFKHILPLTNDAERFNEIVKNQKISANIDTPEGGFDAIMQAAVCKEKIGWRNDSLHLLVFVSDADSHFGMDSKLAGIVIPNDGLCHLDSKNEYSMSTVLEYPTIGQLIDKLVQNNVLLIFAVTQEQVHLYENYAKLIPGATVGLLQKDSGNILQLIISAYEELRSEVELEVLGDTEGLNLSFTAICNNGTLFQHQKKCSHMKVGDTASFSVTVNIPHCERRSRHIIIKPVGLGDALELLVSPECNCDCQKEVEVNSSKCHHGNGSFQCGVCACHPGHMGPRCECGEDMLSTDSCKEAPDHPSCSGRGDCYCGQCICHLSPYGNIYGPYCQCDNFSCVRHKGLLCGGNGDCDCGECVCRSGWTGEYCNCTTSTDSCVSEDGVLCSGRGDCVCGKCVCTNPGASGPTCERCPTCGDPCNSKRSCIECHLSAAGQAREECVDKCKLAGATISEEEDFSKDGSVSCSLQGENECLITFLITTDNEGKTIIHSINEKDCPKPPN
Method: (§1) Microplates were coated with recombinant human integrin αvβ6 (2 µg/mL) in PBS (100 µL/well 25° C., overnight). The coating solution was removed, washed with wash buffer (0.05% Tween 20; 0.5 mM MnCl2; in 1x TBS). The plate was blocked with 200 µL/well of Block Buffer (1% BSA; 5% sucrose; 0.5 mM MnCl2; in 1x TBS) at 37° C. for 2 h. Dilutions of testing compounds and recombinant TGFβ1 LAP (0.67 µg/mL) in binding buffer (0.05% BSA; 2.5% sucrose; 0.5 mM MnCl2; in 1x TBS) were added. The plate was incubated for 2 hours at 25° C., washed, and incubated for 1 hour with Biotin-Anti-hLAP. Bound antibody was detected by peroxidase-conjugated streptavidin. The IC50 values for testing compounds were calculated by a four-parameter logistic regression.
The compounds tested were compound samples prepared according to procedures described in the Synthetic Examples section, with the stereochemical purity as indicated in the Examples.
as §1, with “A third series of exemplary compounds was selected for testing in the solid phase integrin αvβ6 binding assay. The compounds tested were compound samples prepared according to procedures described in the Synthetic Examples section, with the stereochemical purity as indicated in the Examples. As in Example B1, microplates” for “Microplates”
`O=C(O)[C@H](CCN(CCCCc1ccc2c(n1)NCCC2)CCOc1ccc(F)cc1)Nc1ncnc2[nH]ncc12` [compound 143] showed an IC50 of 50 to 250 nM. `O=C(O)[C@H](CCN(CCCCc1ccc2c(n1)NCCC2)CCOCC(F)F)Nc1ncnc2ccccc12` [compound 50] gave an IC50 of less than 50 nM. For `Cn1ncc2c(N[C@@H](CCN(CCCCc3ccc4c(n3)NCCC4)CCOc3ccc(F)cc3)C(=O)O)ncnc21` [compound 123], the IC50 was less than 50 nM. Work on `O=C(O)[C@H](CCN(CCO)CCCCc1ccc2c(n1)NCCC2)Nc1ncnc2ccccc12` [compound 75] yielded an IC50 of less than 50 nM. In the case of `O=C(O)[C@H](CCN(CCCCc1ccc2c(n1)NCCC2)CCOc1ccccc1)Nc1ncnc2ccccc12` [compound 28], the IC50 is reported as less than 50 nM. `N#Cc1cnc(N[C@@H](CCN(CCCCc2ccc3c(n2)NCCC3)CC(F)F)C(=O)O)nc1` [compound 118] showed an IC50 greater than 1000 nM. For `Cc1ccc(OCCN(CCCCc2ccc3c(n2)NCCC3)CC[C@H](Nc2ncnc3cccnc23)C(=O)O)cn1` [compound 57], the IC50 was less than 50 nM. Compound `O=C(O)[C@H](CCN(CCCCc1ccc2c(n1)NCCC2)CC(F)F)Nc1ncc(Br)cn1` [compound 96] has an IC50 greater than 1000 nM. With `Cc1nc(N[C@@H](CCN(CCCCc2ccc3c(n2)NCCC3)CCOc2ccc(F)cc2)C(=O)O)c2ccc(F)cc2n1` [compound 40] the IC50 was less than 50 nM. For `Cn1ncc2c(N[C@@H](CCN(CCCCc3ccc4c(n3)NCCC4)CC(F)F)C(=O)O)ncnc21` [compound 88], the IC50 was greater than 1000 nM. With `O=C(O)[C@H](CCN(CCCCc1ccc2c(n1)NCCC2)C1CC1)Nc1ccnc(C(F)(F)F)n1` [compound 115] the IC50 was 50 to 250 nM. `O=C(O)[C@H](CCN(CCCCc1ccc2c(n1)NCCC2)CCOc1ccccc1)Nc1ncc(Br)cn1` [compound 83] showed an IC50 of less than 50 nM. `O=C(O)[C@H](CCN(CCCCc1ccc2c(n1)NCCC2)CCOCC(F)(F)F)Nc1ncnc2ccccc12` [compound 39] was tested, and the IC50 was less than 50 nM. For `Cc1nc(N[C@@H](CCN(CCCCc2ccc3c(n2)NCCC3)CCOc2cccnc2C)C(=O)O)c2ccc(F)cc2n1` [compound 53], the IC50 was less than 50 nM. For `Cc1ncccc1OCCN(CCCCc1ccc2c(n1)NCCC2)CCC(Nc1ncnc2ccccc12)C(=O)O` (stereo not shown) [compound 52], the IC50 was less than 50 nM. `Cn1ncc2c(N[C@@H](CCN(CCCCc3ccc4c(n3)NCCC4)CCOc3ccccc3)C(=O)O)ncnc21` [compound 82] showed an IC50 of less than 50 nM. `O=C(O)[C@H](CCN(CCCF)CCCCc1ccc2c(n1)NCCC2)Nc1ncnc2ccccc12` [compound 30] gave an IC50 of less than 50 nM. Compound `COCCN(CCCCc1ccc2c(n1)NCCC2)CC[C@H](Nc1ncnc2c(F)cccc12)C(=O)O` [compound 20] has an IC50 of less than 50 nM. `O=C(O)[C@H](CCN(CCCCc1ccc2c(n1)NCCC2)CCC(F)F)Nc1ccnc(C2CC2)n1` [compound 135] showed an IC50 of 50 to 250 nM. For `Cc1cc(N[C@@H](CCN(CCCCc2ccc3c(n2)NCCC3)CC(F)F)C(=O)O)nc(-c2ccncc2)n1` [compound 122], the IC50 was 250 to 1000 nM. `CO[C@@H](C)CN(CCCCc1ccc2c(n1)NCCC2)CC[C@H](Nc1ncnc2ccccc12)C(=O)O` [compound 25] was tested, and the IC50 was less than 50 nM. `CS(=O)(=O)CCN(CCCCc1ccc2c(n1)NCCC2)CC[C@H](Nc1ncc(Br)cn1)C(=O)O` [compound 103] showed an IC50 greater than 1000 nM. For `COCCN(CCCCc1ccc2c(n1)NCCC2)CC[C@H](Nc1ncnc2cc(F)c(F)cc12)C(=O)O` [compound 21], the IC50 was less than 50 nM. `O=C(O)[C@H](CCN(CCCCc1ccc2c(n1)NCCC2)CC(F)F)Nc1ncnc2ccccc12` [compound 8] gave an IC50 of 50 to 250 nM. `CO[C@H](C)CN(CCCCc1ccc2c(n1)NCCC2)CC[C@H](Nc1nc(C)nc2ccccc12)C(=O)O` [compound 66] was tested, and the IC50 was less than 50 nM. `Cc1nc(N[C@@H](CCN(CCCCc2ccc3c(n2)NCCC3)CCOc2cncc(F)c2)C(=O)O)c2ccc(F)cc2n1` [compound 61] showed an IC50 of less than 50 nM. `COCCN(CCCCc1ccc2c(n1)NCCC2)CC[C@H](Nc1cc(C(F)F)ncn1)C(=O)O` [compound 23] was tested, and the IC50 was less than 50 nM. `O=C(O)[C@H](CCN(CCCCc1ccc2c(n1)NCCC2)CCC(F)F)Nc1ncnc2ccccc12` [compound 29] gave an IC50 of less than 50 nM. Work on `CO[C@H](C)CN(CCCCc1ccc2c(n1)NCCC2)CC[C@H](Nc1ncnc2c1cnn2C)C(=O)O` [compound 74] yielded an IC50 of less than 50 nM. `CC(=O)NCCN(CCCCc1ccc2c(n1)NCCC2)CC[C@H](Nc1ncnc2ccccc12)C(=O)O` [compound 63] showed an IC50 of less than 50 nM. `Cc1nc(N[C@@H](CCN(CCCCc2ccc3c(n2)NCCC3)CCOC2CC2(F)F)C(=O)O)c2ccc(F)cc2n1` (stereo partly shown) [compound 42] showed an IC50 of less than 50 nM. Work on `COCCN(CCCCc1ccc2c(n1)NCCC2)CC[C@H](Nc1nccc2ccccc12)C(=O)O` [compound 34] yielded an IC50 greater than 1000 nM. In the case of `CCOCCN(CCCCc1ccc2c(n1)NCCC2)CC[C@H](Nc1ncnc2ccccc12)C(=O)O` [compound 55], the IC50 is reported as less than 50 nM. `O=C(O)[C@H](CCN(CCCCc1ccc2c(n1)NCCC2)C1CC1)Nc1ncnc2[nH]ncc12` [compound 116] gave an IC50 of 50 to 250 nM. `CO[C@H](C)CN(CCCCc1ccc2c(n1)NCCC2)CC[C@H](Nc1cc(-c2ccccc2)ncn1)C(=O)O` [compound 128] gave an IC50 greater than 1000 nM. `COc1ccc2c(N[C@@H](CCN(CCCF)CCCCc3ccc4c(n3)NCCC4)C(=O)O)ncnc2c1` [compound 41] was tested, and the IC50 was less than 50 nM. `COCCN(CCCCc1ccc2c(n1)NCCC2)CCC(Nc1ncnc2ncccc12)C(=O)O` (stereo not shown) [compound 11] gave an IC50 of less than 50 nM. Work on `O=C(O)[C@H](CCN(CCCCc1ccc2c(n1)NCCC2)CC1CCO1)Nc1ncnc2ccccc12` (stereo partly shown) [compound 129] yielded an IC50 of less than 50 nM. Compound `N#Cc1cnc(N[C@@H](CCN(CCCCc2ccc3c(n2)NCCC3)CCOc2ccc(F)cc2)C(=O)O)nc1` [compound 138] has an IC50 of less than 50 nM. With `O=C(O)[C@H](CCN(CCCCc1ccc2c(n1)NCCC2)CCOc1ccccc1)Nc1ccnc(C(F)(F)F)n1` [compound 92] the IC50 was less than 50 nM. Compound `CN(C)C(=O)CN(CCCCc1ccc2c(n1)NCCC2)CC[C@H](Nc1ncc(C(F)(F)F)cn1)C(=O)O` [compound 141] has an IC50 of 50 to 250 nM. Compound `O=C(O)[C@H](CCN(CCCCc1ccc2c(n1)NCCC2)CCOCC(F)(F)F)Nc1ncnc2cccnc12` [compound 51] has an IC50 of less than 50 nM. `O=C(O)[C@H](CCN(CCCCc1ccc2c(n1)NCCC2)CCOc1ccc(F)cc1)Nc1ncc(C(F)(F)F)cn1` [compound 139] gave an IC50 of less than 50 nM. `O=C(O)[C@H](CCN(CCCCc1ccc2c(n1)NCCC2)CCOc1ccccc1)Nc1ncnc2[nH]ncc12` [compound 90] showed an IC50 of less than 50 nM. Work on `O=C(O)[C@H](CCN(CCCCc1ccc2c(n1)NCCC2)CCC(F)F)Nc1ncc(Br)cn1` [compound 131] yielded an IC50 of 50 to 250 nM. Compound `COC[C@@H](F)CN(CCCCc1ccc2c(n1)NCCC2)CC[C@H](Nc1cc(-n2cccn2)ncn1)C(=O)O` [compound 108] has an IC50 greater than 1000 nM. `CO[C@H](C)CN(CCCCc1ccc2c(n1)NCCC2)CC[C@H](Nc1ncc(Br)cn1)C(=O)O` [compound 86] showed an IC50 of 50 to 250 nM. `O=C(O)[C@H](CCN(CCCCc1ccc2c(n1)NCCC2)CCOC(F)F)Nc1ncnc2ccccc12` [compound 35] was tested, and the IC50 was less than 50 nM. With `CS(=O)(=O)CCN(CCCCc1ccc2c(n1)NCCC2)CC[C@H](Nc1nc(-c2cccnc2)nc2ccccc12)C(=O)O` [compound 107] the IC50 was 250 to 1000 nM. `O=C(O)[C@H](CCN(CCCCc1ccc2c(n1)NCCC2)CCOc1ccccc1)Nc1cc(-c2ccccc2)ncn1` [compound 93] was tested, and the IC50 was less than 50 nM. For `O=C(O)[C@H](CCN(CCCCc1ccc2c(n1)NCCC2)CC(F)F)Nc1ncc(F)cn1` [compound 121], the IC50 was greater than 1000 nM. `COCCN(CCCCc1ccc2c(n1)NCCC2)CC[C@H](Nc1cc(C(F)(F)F)nc(C)n1)C(=O)O` [compound 22] gave an IC50 of less than 50 nM. Compound `O=C(O)[C@H](CCN(CCCCc1ccc2c(n1)NCCC2)CC(F)F)Nc1ncncc1-c1ccccc1` [compound 119] has an IC50 greater than 1000 nM. `CO[C@H](C)CN(CCCCc1ccc2c(n1)NCCC2)CC[C@H](Nc1ncnc2[nH]ncc12)C(=O)O` [compound 71] was tested, and the IC50 was less than 50 nM. In the case of `COCCN(CCCCc1ccc2c(n1)NCCC2)CC[C@H](Nc1cc(C)nc(C(F)(F)F)n1)C(=O)O` [compound 26], the IC50 is reported as less than 50 nM. Work on `COCCN(CCCCc1ccc2c(n1)NCCC2)CC[C@H](Nc1ncnc2c(Cl)cccc12)C(=O)O` [compound 38] yielded an IC50 of less than 50 nM. `COCCN(CCCCc1ccc2c(n1)NCCC2)CC[C@H](Nc1cc(-n2cccn2)ncn1)C(=O)O` [compound 44] was tested, and the IC50 was less than 50 nM. In the case of `CN(C)C(=O)CN(CCCCc1ccc2c(n1)NCCC2)CC[C@H](Nc1ncnc2ccccc12)C(=O)O` [compound 64], the IC50 is reported as less than 50 nM. In the case of `COCCN(CCCCc1ccc2c(n1)NCCC2)CC[C@H](Nc1ccnc(C(F)(F)F)n1)C(=O)O` [compound 24], the IC50 is reported as less than 50 nM. `O=C(O)[C@H](CCN(CCCCc1ccc2c(n1)NCCC2)CC(F)F)Nc1ccncn1` [compound 120] gave an IC50 greater than 1000 nM. In the case of `CO[C@H](C)CN(CCCCc1ccc2c(n1)NCCC2)CC[C@H](Nc1ncc(F)cn1)C(=O)O` [compound 78], the IC50 is reported as less than 50 nM.
